Reference: patent publication US11925662B2, “Compositions and methods of enhancing anti-tumor response using hybrid neutrophils” (THE TRUSTEES OF THE UNIVERSITY OF PENNSYLVANIA, priority 2015, dated 2024)

Tests used:
[1] = test system: bone marrow neutrophils (BMNs); assay: Differentiation of BMNs into HLA-DR+CD14+ hybrid neutrophils (flow cytometry); type: cell-based, human; conditions: for induction of the CD14+HLA-DR+ hybrid phenotype in BMNs: single factor at the low concentrations found in the TCMs
Experimental: Generation of BM-Derived Hybrid and Canonical Neutrophils. To differentiate BMNs into cells that resemble canonical TANs, purified long-lived BMNs were cultured for 7 days with a TCM (50% v/v) collected from a patient's tumor digest where a large number of hybrid TANs were previously unable to be identified by flow cytometry. […] Alternatively, hybrid-neutrophils were differentiated from BMNs with low doses IFN-γ (50 pg/ml) and GM-CSF (50 pg/ml) for 7 days. If it was observed that the formation of hybrid BMNs was less than 80% the HLA-DR+CD14+ hybrid cells from TCM treated BMNs were enriched by positive selection using magnetic beads coated with anti-HLA-DR antibodies or by flow cytometric cell sorting. The proliferation of BMNs during the differentiation was assessed by flow cytometry using BrdU Flow Kit (BD Pharmingen). BMNs were exposed to bromo-deoxyuridine for 6 hours.
To test the effect of hypoxia on hybrid neutrophil formation, BMNs were cultured for 6 days under normoxic and hypoxic culture conditions maintained in a 37° C. incubator containing 5% CO2, and either atmospheric 21% O2 or 5% O2 condition (Hypoxia Incubator Chamber, Stemcell Techology). BMNs were also cultured in the presence of hybrid-inducing TCM and cobalt chloride (25 μM) (MP Biomedicals LLC), an agent that induces the hypoxia-inducible factor-1α, the main transcriptional factor activated in hypoxic conditions.
Flow Cytometry. Flow cytometric analysis was performed according to standard protocols. Negative gating was based on a fluorescence minus one (FMO) strategy. To exclude dead cells from analysis, cells were stained with the Fixable Viability Dye eFluor® 450 (ebioscience), LIVE/DEAD® fixable dead cell stains (Molecular probes, Life Technologies), or Zombie Yellow™ Fixable Viability dye (Biolegend). To distinguish early-stage apoptotic and late-stage apoptotic/necrotic cells, cells were first stained with Fixable Viability Dye eFluor® 660 (eBioscience). Then cells were washed with the AnnexinV-Binding Buffer and stained with anti-AnnexinV Abs (FITC) in the AnnexinV-Binding Buffer for 10 min at RT. Cells were washed and analyzed by flow cytometry.
(§1) For phenotypic and functional analysis PBNs, BMNs, and TANs were gated on live CD11b^+CD15^hiCD66b^+ cells. […] All data were acquired using the BD FACSCalibur or BD LSRFortessa™ (BD Bioscience) flow cytometers and analyzed using FlowJo software (TreeStar Inc.).

human Ikaros proteins = conditions: literature (Kronke et al., 2014); cited from earlier work
PD-L1 = PD-L1 expression on HLA-DR+ BMNs (flow cytometry); type: cell-based, human; conditions: IFN-γ at more than 1 ng/ml, with GM-CSF 50 pg/ml
From the text: FIGS. 16A-16F are a series of graphs showing tumor-derived IFN-γ and GM-SCF synergistically differentiate immature neutrophils into a subset of APC-like hybrid neutrophils. […] FIGS. 16E-16F show levels of IFN-γ (FIG. 16E) and GM-CSF (FIG. 16F) in supernatants collected from the cell culture of small-sized tumor digests where APC-like hybrid TANs were or were not previously detected (set-off was >10% among all TANs) (line represents mean±SEM, n=10, Mann-Whitney test for unpaired data). Lower panels represent the correlation between the absolute levels of IFN-γ and GM-CSF in the TCM, with the frequency of hybrid neutrophils in each tumor shown in the upper graphs. Non-parametric Spearman test was used to determine the degree of correlation. Representative dot plots from one of five experiments are shown in (FIG. 16A-16D).
as §1

[Cl][Co][Cl] [cobalt chloride]
development of hybrid CD14+HLA-DR+ neutrophils ([1]; with hybrid-inducing TCM, cobalt chloride 25 μM (hypoxia-simulating), 6 days): profoundly inhibited

Nc1cccc2c1CN(C1CCC(=O)NC1=O)C2=O (stereo not drawn) [lenalidomide]
development of HLA-DR+CD14+ hybrid neutrophils ([1]; lenalidomide added to BM neutrophils treated with hybrid-inducing TCM (30% v/v), 6 days): dramatically facilitated
effect on Ikaros proteins (human Ikaros proteins): causes proteasomal degradation of the human Ikaros proteins

GM-CSF: Human recombinant GM-CSF purchased from PeproTech
induction of the CD14+HLA-DR+ hybrid phenotype in BMNs [1]: able to induce the phenotype, although in a relatively low percentage of cells

IFN-γ: Human recombinant IFN-γ purchased from PeproTech
expression of PD-L1 on the HLA-DR+ BMNs (PD-L1): gradually induced the expression of PD-L1
induction of the CD14+HLA-DR+ hybrid phenotype in BMNs [1]: able to induce the phenotype, although in a relatively low percentage of cells
